Experimental data as given in paper PMC8817233 (Journal of medicinal chemistry, 2021).
“Also recorded” adds a separate entry of the source.

Legend:
[1] = target: T1, purified full-length β-catenin (Homo sapiens, UniProt P35222); assay: Streptavidin pull-down with purified protein; type: binding; conditions: Western blot, from 1 μM
T1 sequence (P35222 1-781): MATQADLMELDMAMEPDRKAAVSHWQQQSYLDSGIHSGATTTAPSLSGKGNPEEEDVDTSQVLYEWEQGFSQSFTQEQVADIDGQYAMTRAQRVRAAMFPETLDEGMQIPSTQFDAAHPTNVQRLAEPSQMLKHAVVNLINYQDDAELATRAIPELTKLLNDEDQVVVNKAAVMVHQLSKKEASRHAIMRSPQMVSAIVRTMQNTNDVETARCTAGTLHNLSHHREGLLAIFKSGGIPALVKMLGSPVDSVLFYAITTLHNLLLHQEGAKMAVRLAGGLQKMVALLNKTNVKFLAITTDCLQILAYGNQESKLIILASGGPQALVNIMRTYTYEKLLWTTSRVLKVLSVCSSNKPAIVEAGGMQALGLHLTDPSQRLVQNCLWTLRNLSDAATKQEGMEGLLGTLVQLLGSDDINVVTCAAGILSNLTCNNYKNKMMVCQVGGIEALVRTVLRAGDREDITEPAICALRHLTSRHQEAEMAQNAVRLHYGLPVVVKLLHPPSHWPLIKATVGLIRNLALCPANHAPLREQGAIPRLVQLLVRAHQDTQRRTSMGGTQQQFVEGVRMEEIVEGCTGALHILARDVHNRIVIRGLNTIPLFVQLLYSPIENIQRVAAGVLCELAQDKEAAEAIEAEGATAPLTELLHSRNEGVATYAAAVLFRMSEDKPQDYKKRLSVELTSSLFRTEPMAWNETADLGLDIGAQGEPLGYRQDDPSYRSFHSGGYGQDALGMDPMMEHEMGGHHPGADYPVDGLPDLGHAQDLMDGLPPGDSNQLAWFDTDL

[2] = target: T2, β-catenin R1C (residues 138–781) (Homo sapiens, UniProt P35222); assay: Streptavidin pull-down with β-catenin truncate; type: binding
T2 sequence (P35222 138-781): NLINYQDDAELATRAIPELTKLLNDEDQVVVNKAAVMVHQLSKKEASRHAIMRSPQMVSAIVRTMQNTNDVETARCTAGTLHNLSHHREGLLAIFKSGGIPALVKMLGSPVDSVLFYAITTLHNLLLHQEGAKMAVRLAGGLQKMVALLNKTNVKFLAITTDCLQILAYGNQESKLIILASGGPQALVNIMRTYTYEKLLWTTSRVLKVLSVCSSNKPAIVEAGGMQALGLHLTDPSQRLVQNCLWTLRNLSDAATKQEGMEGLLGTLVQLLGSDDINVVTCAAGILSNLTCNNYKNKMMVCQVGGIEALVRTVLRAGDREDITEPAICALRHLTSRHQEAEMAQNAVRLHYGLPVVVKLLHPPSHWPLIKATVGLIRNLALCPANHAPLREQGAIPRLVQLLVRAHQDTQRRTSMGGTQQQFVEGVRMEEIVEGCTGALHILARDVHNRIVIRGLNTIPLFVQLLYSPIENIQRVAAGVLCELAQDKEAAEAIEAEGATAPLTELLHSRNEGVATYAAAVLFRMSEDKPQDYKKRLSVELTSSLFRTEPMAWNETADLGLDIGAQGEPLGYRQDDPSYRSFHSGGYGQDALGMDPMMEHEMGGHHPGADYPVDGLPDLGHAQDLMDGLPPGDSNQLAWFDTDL

[3] = target: T3, β-catenin in SW480 cell lysates (Homo sapiens, UniProt P35222); assay: Streptavidin pull-down from cell lysates; type: binding; conditions: 10 μM
T3 sequence (P35222 1-781): T1 sequence (P35222 1-781)

[4] = Hepatic microsome stability, human; type: in vitro ADME; conditions: liver microsomes, pH 7.4
TNBC cells = assay: Clonogenic assay; type: cell-based
[5] = system: Axin2 and cyclin D1 in SW480 and Wnt 3a-activated MDA-MB-231 cells; assay: Western blot of Wnt target proteins; type: cell-based, human; conditions: SW480 and Wnt 3a-activated MDA-MB-231, 24 h
MDA-MB-231 cells [6] = assay: 3D spheroid BME cell invasion assay; type: cell-based; conditions: day 6
MDA-MB-231 cells [7] = assay: Scratch wound healing assay; type: cell-based; conditions: 10% serum, mitomycin 10 μg/mL
Mouse PK study = type: in vivo, C57BL/6 mice; conditions: p.o., 20 mg/kg
[8] = system: normal mammary epithelial MCF10A cells; assay: FACS annexin V/PI apoptosis, normal cells; type: cell-based, human; conditions: 72 h treatment
PDX 4013 tumors = assay: PDX 4013 TNBC xenograft, tumor growth and tolerability; conditions: 90 mg/kg orally daily in saline, 5 days
[9] = Hepatic microsome stability, mouse; type: in vitro ADME; conditions: liver microsomes, pH 7.4
β-catenin/BCL9 PPI = target: T4, β-catenin/BCL9 PPI (Homo sapiens, UniProt P35222); assay: AlphaScreen competitive inhibition assay of the β-catenin/BCL9 PPI; type: binding; conditions: for fold less potent than ZW4864 (β-catenin/BCL9 Ki): compared with ZW4864
T4 sequence (P35222 1-781): T1 sequence (P35222 1-781)

[10] = system: β-catenin-expressing HEK293 cells; assay: TOPFlash luciferase reporter assay, HEK293; type: cell-based; conditions: 200 μM, 24 h
BCL9 HD2 (Homo sapiens) = BCL9 HD2 (Homo sapiens) (UniProt O00512); conditions: cited from earlier work
Chain of BCL9 HD2 (Homo sapiens) (O00512 351-374): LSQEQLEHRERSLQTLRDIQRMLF

## CC(C)(Oc1cccc(N2CCC[C@@H](C(=O)N(CCOCCOCCNC(=O)CCCC[C@@H]3SC[C@@H]4NC(=O)N[C@@H]43)Cc3ccc(-c4cn[nH]c4)cc3)C2)c1)C(=O)N1CCNCC1 [Biotin-ZW4864, (R)-N-(4-(1H-Pyrazol-4-yl)benzyl)-1-(3-((2-methyl-1-oxo-1-(piperazin-1-yl)propan-2-yl)oxy)phenyl)-N-(2-(2-(2-(5-((3aS,4S,6aR)-2-oxohexahydro-1H-thieno[3,4-d]imidazol-4-yl)pentanamido)ethoxy)ethoxy)ethyl)piperidine-3-carboxamide]
[1]
  pull-down of purified full-length β-catenin: bound with the purified full-length β-catenin in a concentration-dependent manner starting at 1 μM; also recorded: pulled down the full-length β-catenin at 1 μM
[2]; 10 μM
  pull-down of β-catenin R1C: did not pull down β-catenin R1C
[2]; 50 μM
  pull-down of β-catenin R1C: pulled down β-catenin R1C
[3]
  binding to β-catenin in SW480 cell lysates: effectively bind with β-catenin in SW480 cell lysates

## CC(C)(Oc1cccc(N2CCC[C@@H](C(=O)N(Cc3ccc(-c4cn[nH]c4)cc3)C3CC3)C2)c1)C(=O)N1CCNCC1.Cl [ZW4864, (R)-N-(4-(1H-Pyrazol-4-yl)benzyl)-N-cyclopropyl-1-(3-((2-methyl-1-oxo-1-(piperazin-1-yl)propan-2-yl)oxy)phenyl)piperidine-3-carboxamide]
[4]
  microsomal CLint at 1 μM: 18 µL/min/mg
TNBC cells
  colony formation: inhibited colony formation
[5]
  expression of proteins Axin2 and cyclin D1 (Western blot): substantially decreased
MDA-MB-231 cells [6]
  3D spheroid cell invasion: suppressed MDA-MB-231 cell invasion in a dose-dependent manner
MDA-MB-231 cells [7]
  MDA-MB-231 cell migration: suppressed MDA-MB-231 cell migration in a dose-dependent manner
Mouse PK study
  CL: 51.10 mL/min/kg
[8]
  apoptosis (FACS annexin V/PI): sparing normal mammary epithelial MCF10A cells
PDX 4013 tumors
  body weight and toxicity: no significant decrease in weight or major toxicity issues
  tumor growth compared with vehicle: a variation in tumor growth
[9]
  half-life at 1 μM: 9.6 min

## CC(C)c1ccc(CN(C(=O)[C@@H]2CCCN(c3cccc(OC(C)(C)C(=O)N4CCNCC4)c3)C2)C2CC2)cc1.Cl [compound 7, (R)-N-Cyclopropyl-N-(4-isopropylbenzyl)-1-(3-((2-methyl-1-oxo-1-(piperazin-1-yl)propan-2-yl)oxy)phenyl)piperidine-3-carboxamide]
β-catenin/BCL9 PPI; compared with 3
  fold more potent than 3 (β-catenin/BCL9 Ki): 2 fold

## CC(C)(Oc1cccc(N2CCC[C@@H](C(=O)N(Cc3ccc(-c4ccn[nH]4)cc3)C3CC3)C2)c1)C(=O)N1CCNCC1.Cl [compound 17, (R)-N-(4-(1H-Pyrazol-5-yl)benzyl)-N-cyclopropyl-1-(3-((2-methyl-1-oxo-1-(piperazin-1-yl)propan-2-yl)oxy)phenyl)piperidine-3-carboxamide]
β-catenin/BCL9 PPI
  fold less potent than ZW4864 (β-catenin/BCL9 Ki): 10 fold

## Cl.Cn1cc(-c2ccc(CN(C(=O)[C@@H]3CCCN(c4cccc(OC(C)(C)C(=O)N5CCNCC5)c4)C3)C3CC3)cc2)cn1 [compound 18, (R)-N-Cyclopropyl-1-(3-((2-methyl-1-oxo-1-(piperazin-1-yl)propan-2-yl)oxy)phenyl)-N-(4-(1-methyl-1H-pyrazol-4-yl)benzyl)piperidine-3-carboxamide]
β-catenin/BCL9 PPI
  fold less potent than ZW4864 (β-catenin/BCL9 Ki): 89 fold

## CN1CCN(C(=O)C(C)(C)Oc2cccc(N3CCC[C@@H](C(=O)N(Cc4ccc(-c5cn[nH]c5)cc4)C4CC4)C3)c2)CC1 [compound 19, (R)-N-(4-(1H-Pyrazol-4-yl)benzyl)-N-cyclopropyl-1-(3-((2-methyl-1-(4-methylpiperazin-1-yl)-1-oxopropan-2-yl)oxy)phenyl)piperidine-3-carboxamide]
[10]
  TOPFlash luciferase activity, in words: did not show any activity

## CCN(Cc1ccc(-c2cn[nH]c2)cc1)C(=O)[C@@H]1CCCN(c2cccc(OC(C)(C)C(=O)N3CCNCC3)c2)C1.Cl [compound 21, (R)-N-(4-(1H-Pyrazol-4-yl)benzyl)-N-ethyl-1-(3-((2-methyl-1-oxo-1-(piperazin-1-yl)propan-2-yl)oxy)phenyl)piperidine-3-carboxamide]
[4]
  microsomal CLint at 1 μM: 24 µL/min/mg
[9]
  half-life at 1 μM: 7.7 min

## CCOCCN(Cc1ccc(-c2cn[nH]c2)cc1)C(=O)[C@@H]1CCCN(c2cccc(OC(C)(C)C(=O)N3CCNCC3)c2)C1.Cl [compound 22, (R)-N-(4-(1H-Pyrazol-4-yl)benzyl)-N-(2-ethoxyethyl)-1-(3-((2-methyl-1-oxo-1-(piperazin-1-yl)propan-2-yl)oxy)phenyl)piperidine-3-carboxamide]
β-catenin/BCL9 PPI; AlphaScreen, values only in Figure 2B
  inhibitory affinity for β-catenin/BCL9 PPI, in words: maintained low μM inhibitory affinities

## beta-catenin (from UniProt P35222)
BCL9 HD2 (Homo sapiens)
  Kd: 470 nM
